Patent US12275729B2 (Merck Sharp & Dohme LLC, priority 2017, dated 2025)

Target: IDO1 (Homo sapiens, UniProt P14902)
Assay: IDO1 Cellular Assay in HeLa Cells Stimulated with IFNγ
Format: cell-based
Conditions: about 48 hours, read-out: Hela IC50
Protocol: Biological Assays IDO1 Cellular Assay in HeLa Cells Stimulated with IFNγ
HeLa cells were cultured in complete HeLa culture medium (90% EMEM, 10% heat-inactivated fetal bovine serum) and expanded to about 1×10^9 cells. The cells were then collected and frozen down at 1×10^7 cells/vial in 1 mL frozen medium (90% complete HeLa culture medium, 10% DMSO).
Compounds to be tested were serially diluted in ten 3-fold steps in DMSO starting from 10 mM DMSO stocks in Echo low volume plate(s).
Frozen HeLa cells were thawed and transferred into HeLa assay medium (99% complete HeLa culture medium, 1% Pen/Strep) with 20 mL medium/vial of cells. The cells were spun down at 250 g in a table top centrifuge for 5 min and suspended in same volume of HeLa assay medium. The cells were then counted and adjusted to a density of 2×10^5 cells/mL in HeLa assay medium. Sterile L-tryptophan were added to the cells with final concentration of 300 uM L-tryptophan. A small aliquot (2 mL/plate) of HeLa cells were set aside and were not treated with IFNγ, to serve as the Max-E control.
HeLa cells with and without IFNγ were dispensed to the respective wells of 384-well assay plates containing the compounds. The plates were incubated for about 48 hours at a 37° C., 5% CO2 incubator. Afterwards, 12 μL of 0.5 M methyl isonipecotate in dimethyl sulfoxide were added into each well and the plates were sealed and incubated at 37° C. without CO2 overnight. The plates were centrifuged for 1 min at 200×g. The resulting fluorescence was measured in a Spectramax plate reader (Molecular Devices) with a 400 nm excitation filter and a 510 nm emission filter.
Potencies were calculated by […] least squares fit to the four parameter logistic IC50 equation.

Sequence of IDO1 (P14902 whole entry): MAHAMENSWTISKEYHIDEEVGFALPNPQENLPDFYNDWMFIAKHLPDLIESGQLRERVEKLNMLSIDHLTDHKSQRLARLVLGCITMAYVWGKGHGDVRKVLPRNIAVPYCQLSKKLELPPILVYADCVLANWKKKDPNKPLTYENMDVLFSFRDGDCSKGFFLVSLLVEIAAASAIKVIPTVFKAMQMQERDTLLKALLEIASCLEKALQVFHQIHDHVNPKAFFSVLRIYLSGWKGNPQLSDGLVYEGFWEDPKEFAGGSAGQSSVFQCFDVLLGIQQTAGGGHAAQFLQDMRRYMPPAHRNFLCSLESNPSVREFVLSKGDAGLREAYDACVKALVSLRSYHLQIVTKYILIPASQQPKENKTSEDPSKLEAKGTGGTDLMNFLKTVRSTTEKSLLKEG

SMILES | IC50
CC(NC(=O)c1ccc(Cl)cc1)c1ccc2c(n1)CCCN2C(=O)C1CC1 (single isomer, unassigned) [Example 126, 4-chloro-N-{1-[5-(cyclopropanecarbonyl)-5,6,7,8-tetrahydro-1,5-naphthyridin-2-yl]ethyl}benzamide] | 617 nM
CC(C)CC(=O)N1CCCc2cc(CNC(=O)c3ccc(F)c(F)c3)ccc21 [Example 10, 3,4-difluoro-N-{[1-(3-methylbutanoyl)-1,2,3,4-tetrahydroquinolin-6-yl]methyl}benzamide] | 161 nM
CC(NC(=O)c1ccc(F)cc1)c1ccc2c(n1)C(O)CCN2C(=O)C1CC1 (single isomer, unassigned) [Example 197, N-(1-(5-(cyclopropanecarbonyl)-8-hydroxy-5,6,7,8-tetrahydro-1,5-naphthyridin-2-yl)ethyl)-4-fluorobenzamide] | 290 nM
Cn1ccc(C(=O)NCc2ccc3c(c2)CCCN3C(=O)c2cccc(Cl)c2)n1 [Example 25, N-{[1-(3-chlorobenzene-1-carbonyl)-1,2,3,4-tetrahydroquinolin-6-yl]methyl}-1-methyl-1H-pyrazole-3-carboxamide] | 136 nM
CC(C(=O)Nc1ccc(F)cc1)c1ccc2c(n1)CCCN2C(=O)C1CCCCO1 (stereo not drawn) [Example 158, N-(4-fluorophenyl)-2-[5-(oxane-2-carbonyl)-5,6,7,8-tetrahydro-1,5-naphthyridin-2-yl]propanamide] | 38.1 nM
CC(C(=O)Nc1ccc(F)cc1)c1ccc2c(c1)CCCN2C1CCCCC1 (stereo not drawn) [Example 228, 2-(1-cyclohexyl-1,2,3,4-tetrahydroquinolin-6-yl)-N-(4-fluorophenyl)propanamide] | 4150 nM
CC(C)(C)OC(=O)N1CCCc2cc(C3(C(=O)NC45CC(C4)C5)CCC3)ccc21 [Example 119, tert-butyl 6-{1-[(bicyclo[1.1.1]pentan-1-yl)carbamoyl]cyclobutyl}-3,4-dihydroquinoline-1(2H)-carboxylate] | 87.6 nM
CCc1nc(C(=O)NCc2ccc3c(c2)CCCN3C(=O)c2cccc(Cl)c2)co1 [Example 23, N-{[1-(3-chlorobenzene-1-carbonyl)-1,2,3,4-tetrahydroquinolin-6-yl]methyl}-2-ethyl-1,3-oxazole-4-carboxamide] | 77.6 nM
C[C@@H](NC(=O)c1ccc(F)cc1)c1ccc2c(c1)CCCN2C(=O)C1(F)CC1 (single isomer, unassigned) [Example 31] | 1230 nM
CC(C)CC(=O)N1CCCc2cc(CNC(=O)c3cccc(Cl)c3)ccc21 [Example 2, 3-chloro-N-{[1-(3-methylbutanoyl)-1,2,3,4-tetrahydroquinolin-6-yl]methyl}benzamide] | 103 nM
COC(C)C(=O)N1CCCc2cc([C@H](C)C(=O)Nc3ccc(F)cc3)ccc21 (single isomer, unassigned) [Example 76] | 25.9 nM
CC(C)C(C(=O)Nc1ccc(F)cc1)c1ccc2c(n1)CCCN2C(=O)C1CC1 (stereo not drawn) [Example 263, 2-(5-(cyclopropanecarbonyl)-5,6,7,8-tetrahydro-1,5-naphthyridin-2-yl)-N-(4-fluorophenyl)-3-methylbutanamide] | 34.9 nM

Now from value to compound:

IC50 | SMILES
4.3 nM | C=CCC(C(=O)Nc1ccc(F)cc1)c1ccc2c(c1)CCCN2C(=O)c1cccc(Cl)c1 (stereo not drawn) [Example 58, 2-[1-(3-chlorobenzene-1-carbonyl)-1,2,3,4-tetrahydroquinolin-6-yl]-N-(4-fluorophenyl)pent-4-enamide]
1.9 nM | COC(=O)N1CCCc2nc(C(C)C(=O)Nc3ccc(F)cc3)ccc21 (stereo not drawn) [Example 220, methyl 6-{1-[(4-fluorophenyl)amino]-1-oxopropan-2-yl}-3,4-dihydro-1,5-naphthyridine-1(2H)-carboxylate]
5.2 nM | O=C(C1CCO1)N1CCCc2nc(C3(C(=O)Nc4ccc(F)cc4)CCC3)ccc21 (stereo not drawn) [Example 182, N-(4-fluorophenyl)-1-[5-(oxetane-2-carbonyl)-5,6,7,8-tetrahydro-1,5-naphthyridin-2-yl]cyclobutane-1-carboxamide]
25.7 nM | O=C(NC1(c2ccc3c(n2)CCCN3C(=O)C2CC2)CC1)c1ccc(F)cc1 [Example 168, N-{1-[5-(cyclopropanecarbonyl)-5,6,7,8-tetrahydro-1,5-naphthyridin-2-yl]cyclopropyl}-4-fluorobenzamide]
4.2 nM | Cc1noc(C(=O)N2CCCc3cc(C(C)C(=O)Nc4ccc(F)cc4)ccc32)n1 (stereo not drawn) [Example 43, N-(4-fluorophenyl)-2-[1-(3-methyl-1H-1,2,4-oxadiazole-5-carbonyl)-1,2,3,4-tetrahydroquinolin-6-yl]propanamide]
3.2 nM | CC(NC(=O)c1ccc(Cl)cc1)c1ccc2c(n1)CCCN2C(=O)c1cc(C2CC2)ccn1 (stereo not drawn) [Example 288, 4-chloro-N-(1-(5-(4-cyclopropylpicolinoyl)-5,6,7,8-tetrahydro-1,5-naphthyridin-2-yl)ethyl)benzamide]
4.3 nM | CC(C)CC(=O)N1CCCc2cc(C(C)NC(=O)c3ccc(Cl)cc3)ccc21 (single isomer, unassigned) [Example 26, 4-chloro-N-{1-[1-(3-methylbutanoyl)-1,2,3,4-tetrahydroquinolin-6-yl]ethyl}benzamide]
19.8 nM | COC(=O)N1CCCc2nc(C(C)C(=O)Nc3ccc(Cl)cc3)ccc21 (stereo not drawn) [Example 221, methyl 6-{1-[(4-chlorophenyl)amino]-1-oxopropan-2-yl}-3,4-dihydro-1,5-naphthyridine-1(2H)-carboxylate]
9.4 nM | CC(C)C(=O)N1CCCc2cc([C@H](C)C(=O)Nc3ccc(F)cc3)ccc21 [Example 83, (2S)-N-(4-fluorophenyl)-2-[1-(2-methylpropanoyl)-1,2,3,4-tetrahydroquinolin-6-yl]propanamide]
9.7 nM | O=C(NC1(c2ccc3c(n2)CCCN3C(=O)[C@H]2CCCO2)CC1)c1ccc(F)cc1 [Example 176, 4-fluoro-N-(1-{5-[(2R)-oxolane-2-carbonyl]-5,6,7,8-tetrahydro-1,5-naphthyridin-2-yl}cyclopropyl)benzamide]
5.9 nM | Cc1nc(C(=O)N2CCCc3cc(C(C)C(=O)Nc4ccc(F)cc4)ccc32)co1 (stereo not drawn) [Example 45, N-(4-fluorophenyl)-2-[1-(2-methyl-1,3-oxazole-4-carbonyl)-1,2,3,4-tetrahydroquinolin-6-yl]propanamide]
1.8 nM | O=C(C1CCCCO1)N1CCCc2nc(C3(C(=O)Nc4ccc(F)cc4)CCC3)ccc21 (single isomer, unassigned) [Example 179, N-(4-fluorophenyl)-1-[5-(oxane-2-carbonyl)-5,6,7,8-tetrahydro-1,5-naphthyridin-2-yl]cyclobutane-1-carboxamide]

Same assay, conditions: read-out: Hela IC50

SMILES | IC50
CC(NC(=O)c1ccc(F)cc1)c1ccc2c(n1)CCCN2c1ccn2ncnc2n1 (stereo not drawn) [Example 370, N-(1-(5-([1,2,4]triazolo[1,5-a]pyrimidin-5-yl)-5,6,7,8-tetrahydro-1,5-naphthyridin-2-yl)ethyl)-4-fluorobenzamide] | 1800 nM
CC(NC(=O)c1ccc(F)cc1)c1ccc2c(n1)CCCN2C(=O)OCC1CCO1 (stereo not drawn) [Example 313, oxetan-2-ylmethyl 6-(1-(4-fluorobenzamido)ethyl)-3,4-dihydro-1,5-naphthyridine-1(2H)-carboxylate] | 45.3 nM
CC(NC(=O)c1ccc(C#N)cc1)c1ccc2c(n1)CCCN2C(=O)OC1CC1 (stereo not drawn) [Example 337, cyclopropyl 6-(1-(4-cyanobenzamido)ethyl)-3,4-dihydro-1,5-naphthyridine-1(2H)-carboxylate] | 88.2 nM
